Source: the supplement of paper PMC8837787

Test system: Saccharomyces cerevisiae ABC16-Green Monster
Test: growth inhibition at single dose (up to 150 µM), below the 70% cut-off for dose-response; higher = more potent
Details: 18 h; 30 °C; YPD
Outline: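 Values are percent growth inhibition of drug-sensitive S. cerevisiae ABC16-Green Monster cells. Cells grown overnight in YPD at 30 °C were diluted to log phase (OD600 0.1–0.2), and each library compound was added at a single dose of 150 µM to 200 µl culture per well in 96-well plates, in biological duplicates, beside untreated cultures. OD600 was read at 0 h and after 18 h at 30 °C, and compounds under 70% in both replicates were not taken to dose-response.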

SMILES	growth inhibition at single dose [%]
CCOc1ccc2nc(C)cc(Nc3ccc(Br)cc3)c2c1	< 70
CCOc1cc2c(cc1CNC(=O)c1cnc3cc(C)nn3c1C)OC(C)C2 (stereo not given)	< 70
CN(C)c1cc(CNC(=O)c2cc3c(F)cccc3s2)ccn1	< 70
CCOC(=O)c1cnc2ccc(Cl)cc2c1NCCCN(C)C	< 70
CN1CCCC1CCO[C@](C)(c1ccccc1)c1ccc(Cl)cc1 (stereo not given in full)	< 70
CN1CCN(c2nccc3nc(-c4ccc(F)c(F)c4)[nH]c23)CC1	< 70
O=C1COCc2ccc(Br)cc2N1Cc1ccc(C(F)(F)F)cc1	< 70
Nc1nccc2ccc(Oc3ccncc3)cc12	< 70
CC(C)(C)n1nc(-c2ccccc2)c2c(N)ncnc21	< 70
COc1cc(C(=O)c2c(-c3ccccc3)cc3ccccn23)cc(OC)c1OC	< 70
CC1CC(C)C[N+](=C2C=C(N3CCCC3)CC(C)(C)C2)C1 (stereo not given)	< 70
COc1ccc(C2=NOC(C(N)=O)C2)cc1OC (stereo not given)	< 70
C/N=c1\scc(-c2ccccc2OC)n1/N=C/c1ccc[nH]1	< 70
NC(=O)c1cc(Br)ccc1OCCOc1ccccc1	< 70
CC(=O)Nc1cccc2c1CCN(c1ncnc3sccc13)C2	< 70
O=C(Nc1cc(Cl)cc(Cl)c1)Nc1cc(Cl)cc(Cl)c1	< 70
COc1cc(Br)cc2cc(C(=O)Nc3cccc(C(F)(F)F)c3)c(=O)oc12	< 70
O=C(CN1CCOCC1)Nc1ccc2ncnc(Nc3ccc(OCc4cccc(F)c4)c(Cl)c3)c2c1	< 70
O=C(Nc1ccc(-c2nc3ccccc3[nH]2)cc1)c1ccc(Cl)c(Cl)c1	< 70
Cc1cc(C)n2nc(C(=O)Nc3cc(C(F)(F)F)ccc3N3CCOCC3)nc2n1	< 70
COc1cc(C(=O)ON=C(N)Cc2cccc3ccccc23)cc(OC)c1OC	< 70
c1ccc2cc3c(Nc4ccc(N5CCOCC5)cc4)ccnc3cc2c1	< 70
O=C(CN1C(=O)CSc2ccc(C(F)(F)F)cc21)Nc1ccc(Cl)cc1	< 70
O=C(Nc1ccc(Br)cc1)Nc1cccc(Cl)c1	< 70

SMILES	growth inhibition at single dose [%]
Cc1nc(-c2ccccn2)nc(NCCc2ccc(S(C)(=O)=O)cc2)c1Cl	< 70
CCOc1ccc(-c2nc(NC(=O)CS(=O)(=O)c3ccccc3)sc2C)cc1	< 70
COc1cccc(N(C)S(=O)(=O)c2cccc3cc(C)cnc23)n1	< 70
N#Cc1ccnc(N2CCN(C(=O)c3cccc(-n4cccc4)c3)CC2)c1	< 70
O=C(Nc1ccc(F)c(Cl)c1)Nc1ccc(Cl)c(Cl)c1	< 70
Cc1ccc(-c2nc3ccccc3o2)cc1NCc1cc(Cc2ccccc2)ccc1O	< 70
CCCCCCOC(=O)C1=C(C)NC(=O)NC1c1ccccc1F (stereo not given)	< 70
CCc1ccc(C(NCc2nc(N)nc(N(C)C)n2)C(C)C)cc1 (stereo not given)	< 70
O=C(NC1CCCC1)c1ccc(N2CCC(NCc3cccc(C(F)(F)F)c3)CC2)cc1	< 70
CNC(=O)c1ccc(CN(C2CC2)S(=O)(=O)c2cc(C)ccc2C)cc1	< 70
NC(=O)c1ccsc1NC(=O)CSc1ncc(-c2ccccc2)n1-c1ccccc1	< 70
CCN(CC)CCNc1ncnc2c1[nH]c1ccc(Cl)cc12	< 70
Cn1c(N)c(C(=O)COC(=O)C2(c3ccc(Cl)cc3)CCCC2)c(=O)n(C)c1=O	< 70
CC1CCCCN1CCCNC(=O)c1ccc2c(c1)sc1nc(-c3ccc(F)cc3)cn12 (stereo not given)	< 70
FC(F)(F)c1cc(NCCc2ccccc2)nc(-c2ccccn2)n1	< 70
CCN(CC)CCn1c(NC(=O)c2cnc3c(cnn3C(C)C)c2)nc2ccccc21	< 70
Cc1cc(NC(=O)c2cccc(C(F)(F)F)c2)n(-c2nc(-c3ccc4c(c3)OCO4)cs2)n1	< 70
Nc1ccc(-c2nc3cc(Cc4ccc5[nH]c(-c6ccc(N)cc6)nc5c4)ccc3[nH]2)cc1	< 70
Cc1cc(=O)nc(N/N=C/c2c(C)nn(-c3ccccc3Cl)c2Cl)[nH]1	< 70
COc1ccc(-c2nc(N3CCN(C(=O)C4CCCCC4)CC3)c3c4c(sc3n2)CCCC4)cc1	< 70
CCC(Sc1nc2ccccc2o1)C(=O)Nc1nnc(C)s1 (stereo not given)	< 70
COc1ccc(Nc2ccccc2NC(=O)c2ccc(O)nc2)cc1	< 70
CCCc1c(C)nc2ccccc2c1O	< 70
Cc1ccccc1OCCSc1nc2ccc(NC(=O)c3ccccc3)cc2s1	< 70

SMILES	growth inhibition at single dose [%]
O=C(CCC1CCCCC1)Nc1cccc(-c2nnc(-c3ccco3)o2)c1	< 70
CCn1c(CN2CCN(Cc3ccccc3)CC2)nc2cc(NC(=O)c3cccs3)ccc21	< 70
COc1ccc(CCN2CCC(CN(C)Cc3cnn(-c4ccccc4)c3)CC2)cc1	< 70
COc1ccc(CN2CCOc3ccc(C(C)(O)CN(C)C)cc3C2)cc1C (stereo not given)	< 70
CN1CCCN(C(c2ccccc2)c2ccc(Cl)cc2)CC1 (stereo not given)	< 70
FC(F)(F)c1ccc(NCCNc2ccc(C(F)(F)F)cn2)nc1	< 70
CNc1snc(C)c1C(=O)OCc1cc(C(=O)OC)c(C)o1	< 70
c1cc(C2=NCCN2)cc(-c2cc(-c3ccc(C4=NCCN4)cc3)no2)c1	< 70
O=C1[C@@H](Oc2ccccc2)[C@@H](c2ccc(Cl)cc2)N1CCn1cnc2c(NCc3ccccc3)ncnc21	< 70
CN1CCN(c2nccc3[nH]c(-c4cccc(F)c4)cc23)CC1	< 70
COC(=O)c1ccc(Cl)c2c1C1C=CCC1C(c1cccc3ccccc13)N2 (stereo not given)	< 70
COc1ccc(OC)c(C2C3=C(CC(C)(C)CC3=O)N(c3ccc(Cl)c(Cl)c3)C3=C2C(=O)CC(C)(C)C3)c1	< 70
CCCCCCc1cc2cc(-c3csc(C=Cc4ccccc4)n3)c(=O)oc2cc1O	< 70
Cc1cc(C)c2c(C)c(C(=O)Nc3nc4ccccc4s3)sc2n1	< 70
COCCNC(=O)c1ccc(OC2CCN(Cc3ccc(F)c(F)c3)CC2)c(Cl)c1	< 70
O=C(Nc1ccc(Cl)cc1)N1CCN(c2ccc3nncn3n2)CC1	< 70
Cc1ccc(N2C(=O)C3C(C2=O)C2(c4ccccc4)C(=O)C3(c3ccccc3)C(c3ccccc3)=C2c2ccccc2)cc1 (stereo not given)	< 70
CC(C)(C)c1cnc(NC(=O)c2ccccc2O)s1	< 70
COc1cc(C2=NCCN2)ccc1-n1cc(-c2cccc(C3=NCCN3)c2)nn1	< 70
CCc1nc(COC(=O)c2c(C)nsc2NC)cs1	< 70
Cc1ccc2[nH]c3c(c2c1)CCCC3NCCCN(C)C (stereo not given)	< 70
OC[C@H]1O[C@@H](n2c3ccc(Cl)cc3c3c(-c4cc5ccccc5o4)ncnc32)C(O)[C@H]1O (stereo not given in full)	< 70
